# Laboratory results reported in EP0043811A1, “Indolo-naphthyridines and their use as medicaments” (OMNICHEM Société anonyme, priority 1980, dated 1982).
# Legend:
# [1] = system: souris, de souche Charles River; assay: Hypobaric anoxia test in mice (survival time); type: in vivo; conditions: ratio of DL50/DE50 of the product to DL50/DE50 of vincamine; DE50 = dose raising mean survival time by 50 %; p.o. 30 min before test; 190 mm Hg (5,25 % oxygen)
# Method: Des souris de même sexe, de souche Charles River, pesant environ 20 + 2 g sont réparties en trois lots de 10 animaux. Les lots 1 et 2 comportent les animaux traités, c'est à dire ayant reçu la substance à tester de l'invention. Un troisième lot comporte des animaux témoins.
# Les composés étudiés sont administrés p.o. 30 minutes avant l'essai. Les animaux sont placés dans une atmosphère appauvrie en oxygène par réalisation d'un vide partiel (190 mm Hg, correspondant à 5,25 % d'oxygène), ces conditions étant obtenues en 30 secondes). On mesure le temps de survie des souris au moyen d'un chronomètre. Les agents capables de favoriser l'oxygénation tissulaire et en particulier cérébrale, entraînent un accroissement du temps de survie et l'on peut exprimer par la dose efficace 50 % (DE50), la dose qui augmente de 50 % le temps de survie moyen des animaux placés dans les conditions décrites ci-dessus.
# L'indice vincaminique correspond au rapport de la ^DL50/D^E50 du produit à la DL5ODE50 de la vincamine. Le tableau suivant rassemble les doses léthales et les indices vincaminiques observés pour divers composés de la présente invention.
# [2] = Acute toxicity (LD50) in mice, intravenous; conditions: mouse, in vivo, read-out: DL50 iv
# Source text: Les composés de l'invention ont été administrés sous forme de chlorhydrate par voie intraveineuse à des souris de souche Charles River. Les doses létales 50 % (DL50) ont été déterminées graphiquement selon la méthode de Lichtfield et Wilcoxon (J. Pharmacol.Exp. Thérap. […]).
# [3] = system: chien anesthésié au Nembutal; assay: Haemodynamics and cerebral oxygen consumption in the dog anaesthetised with Nembutal; type: in vivo
# Source text: Chez le chien anesthésié au Nembutal, les composés de l'invention, en particulier Ib', augmentent les débits sanguins artériels des artères fémorales et vertébrales et stimulent de façon marquée (+ 50 %) la consommation apparente du cerveau en oxygène. L'effet sur la fréquence cardiaque est par ailleurs peu marqué, contrairement au cas de la vincamine.
# [4] = system: ptose palpébrale induite par la réserpine; assay: Reserpine-induced palpebral ptosis test in mice; type: in vivo, souris; conditions: mouse
# Source text: Le canthène Ib s'est en outre révélé très actif au test à la ptose palpébrale induite par la réserpine che la souris. […] La combinaison des propriétés antianoxiques et antidépressives confèrent aux composés de l'invention un intérêt thérapeutique original.
# monoamine oxydase = assay: Monoamine oxidase inhibitor (IMAO) character, method not described
SMILES,ind.vincam. hypobare [1],LD50 [2] [mg/kg],débits sanguins artériels des artères fémorales et vertébrales [3],effet sur la fréquence cardiaque ([3]; stated in contrast to vincamine),test à la ptose palpébrale induite par la réserpine [4],caractéristique d'inhibiteur de monoamine oxydase (IMAO) (monoamine oxydase)
"CCN1CCc2c3n(c4ccccc24)C(O)CCC31 (stereo not shown) [Exemple 2, Hydroxy-6 éthyl-3 1,2,3,3a,4,5 hexahydro 6H indolo (3, 2,1, -de) 1,5 naphtyridine]",2,21,,,,
"CCN1CCc2c3n(c4ccccc24)C=CCC31 (stereo not shown) [Exemple 3, Ethyl-3 tétrahydro-1,2,3,3a 4H indolo (3,2,1-de) 1,5 naphtyridine]",2 (Ib'),46,augmentent,peu marqué,très actif,aucune caractéristique d'inhibiteur de monoamine oxydase
"CCN1CCc2c3n(c4ccccc24)CCCC31 (stereo not shown) [Exemple 4, Ethyl-3 hexahydro-1,2,3,3a,4,5-6H indolo (3,2,1-de) 1,5 naphtyridine]",2,14,,,,
